# In US6809193B2, “Antisense oligonucleotide compositions and methods for the modulation of JNK proteins” (ISIS Pharmaceuticals, Inc., priority 1997, dated 2004):
# Strand notation (5' to 3'): a small letter for the sugar, then the base; units joined by * are phosphorothioate-linked, units joined directly phosphodiester-linked; [ ] holds rarer units or linkages, { } end groups; capitals alone tell only the bases. e = 2'-O-(2-methoxyethyl) (MOE); [5mC] = 5-methylcytosine; d = 2'-deoxy (DNA)
# Assays:
# rat JNK1 mRNA = experiment: Northern assay, rat JNK1 (p54?) mRNA in A10 cells; type: cell-based; conditions: for inhibition of rat JNK1 mRNA levels: Table 20
# Experimental: (§1) In order to study the role of JNK proteins in animal models, oligonucleotides targeted to the genes encoding JNK1, JNK2 and JNK3 of Rattus norvegicus were prepared. These oligonucleotides are 2′-methoxyethoxy, phosphodiester/2′-hydroxyl, phosphorothioate/2′-methoxyethoxy, phosphodiester “gapmers” in which every cytosine residue is 5-methylcytosine (msc). These antisense compounds were synthesized according to the methods of the disclosure. Certain of these oligonucleotides are additionally specifically hybridizable to JNK genes from other species as indicated herein. The oligonucleotides described in this Example were tested for their ability to modulate rat JNK mRNA levels essentially according to the methods described in the preceding Examples, with the exceptions that the cell line used was rat A10 aortic smooth muscle cells (ATCC No. ATCC CRL-1476) and the probes used were specific for rat JNK1, JNK2 or JNK3 (see infra). A10 cells were grown and treated with oligonucleotides essentially as described by (Cioffi et al. Mol. Pharmacol., 1997, 51, 383).
# (§2) These antisense compounds were tested for their ability to modulate levels of p54? (JNK1) and p54a (JNK2) mRNA in A10 cells via Northern assays. Due to the high degree of sequence identity between the human and rat genes, radiolabeled human JNK1 (Example 3) and JNK2 (Example 4) cDNAs functioned as specific probes for the rat homologs.
# (§3) A dose response study was conducted using oligonucleotides targeted to rat JNK1 (ISIS 21859; SEQ ID NO:113) and JNK2 (ISIS 18259; SEQ ID NO:130) and Northern assays.
# JNK1 mRNA = experiment: Northern assay, JNK1 mRNA expression in A549 cells; type: cell-based, human; conditions: for RNA % Inhibition: JNK1 mRNA; for dose- and sequence-dependent response on JNK1 mRNA levels: A549 cells, 50, 100, 200 and 400 nM
# rat JNK2 mRNA = experiment: Northern assay, rat JNK2 (p54a) mRNA in A10 cells; type: cell-based; conditions: for inhibition of rat JNK2 mRNA levels: Table 22; for capacity to modulate both JNK1 and JNK2 (Pan JNK): rat JNK1 and JNK2 mRNA
# Experimental: as §1, §2
# These antisense compounds were tested for their ability to modulate levels of p54a (JNK2) mRNA in A10 cells using the radiolabeled human JNK2 cDNA as a probe as described supra. Oligonucleotides showing levels of inhibition from≧about 60% to about 100% of rat JNK2 mRNA levels include ISIS Nos. 18254, 18255, 18257, 18258, 18259, 18260 and 18265 (SEQ ID NOS:125, 126, 128, 129, 130, 131 and 136, respectively). These oligonucleotides are preferred embodiments of the invention for modulating rat JNK2 expression. […] These oligonucleotides are thus more preferred embodiments of the invention for modulating rat JNK2 expression. ISIS 18259 (SEQ ID NO:130) was chosen for use in further studies (infra).
# as §3
# JNK2 mRNA = experiment: Northern assay, JNK2 mRNA expression in A549 cells; type: cell-based, human
# Experimental: In order to evaluate the activity of potential JNK-modulating oligonucleotides, human lung carcinoma cell line A549 (American Type Culture Collection, 10801 University Boulevard, Manassas, Va. 20110-2209, No. ATCC CCL-185) cells or other cell lines as indicated in the Examples, were grown and treated with oligonucleotides or control solutions as detailed below. After harvesting, cellular extracts were prepared and examined for specific JNK mRNA levels or JNK protein levels (i.e., Northern or Western assays, respectively). In all cases, “% expression” refers to the amount of JNK-specific signal in an oligonucleotide-treated cell relative to an untreated cell (or a cell treated with a control solution that lacks oligonucleotide), and “% inhibition” is calculated as
# 100%−%Expression=%Inhibition.
# The mRNA expression of each JNK protein was determined by using a nucleic acid probe specifically hybridizable thereto. Nucleic acid probes specific for JNK1, JNK2 and JNK3 are described in Examples 3, 4 and 5, respectively. The probes were radiolabelled by means well known in the art (see, e.g., Short Protocols in Molecular Biology, 2nd Ed., Ausubel et al., Eds., John Wiley & Sons, New York, 1992, pages 3-11 to 2-3-44 and 4-17 to 4-18; Ruth, Chapter 6 In: Methods in Molecular Biology, Vol. 26: Protocols for Oligonucleotide Conjugates, Agrawal, ed., Humana Press Inc., Totowa, N.J., 1994, pages 167-185; and Chapter 10 In: Molecular Cloning: A Laboratory Manual, 2nd Ed., Sambrook et al., Eds., pages 10.1-10.70). The blots were stripped and reprobed with a ^32P-labeled glyceraldehyde 3-phosphate dehydrogenase (G3PDH) probe (Clontech Laboratories, Inc., Palo Alto, Calif.) in order to confirm equal loading of RNA and to allow the levels of JNK transcripts to be normalized with regard to the G3PDH signals.
# A549 cells were grown in T-75 flasks until 80-90% confluent. At this time, the cells were washed twice with 10 mL of media (DMEM), followed by the addition of 5 mL of DMEM containing 20 μg/mL of LIPOFECTIN™ (i.e., 1:1 (w/w) DOTMA/DOPE, Life Technologies, Gaithersburg, Md.; DOTMA=N-[1-(2,3-dioleyoxy)propyl]-N,N,N-trimethylammonium chloride; DOPE=dioleoyl phosphatidylethanolamine). The oligonucleotides were added from a 10 μM stock solution to a final concentration of 400 nM, and the two solutions were mixed by swirling the flasks. As a control, cells were treated with LIPOFECTIN™ without oligonucleotide under the same conditions and for the same times as the oligonucleotide-treated samples. After 4 hours at 37° C., the medium was replaced with fresh DMEM containing 10% serum. The cells were allowed to recover for 18 hours. Total cellular RNA was then extracted in guanidinium, subject to gel electrophoresis and transferred to a filter according to techniques known in the art (see, e.g., Chapter 7 In: Molecular Cloning: A Laboratory Manual, 2nd Ed., Sambrook et al., Eds., pages 7.1-7.87, and Short Protocols in Molecular Biology, 2nd Ed., Ausubel et al., Eds., John Wiley & Sons, New York, 1992, pages 2-24 to 2-30 and 4-14 to 4-29). Filters were typically hybridized overnight to a probe specific for the particular JNK gene of interest in hybridization buffer (25 mM KPO4, pH 7.4; 5×SSC; 5× Denhardt's solution, 100 μg/ml Salmon sperm DNA and 50% formamide) (Alahari et al., Nucl. Acids Res., 1993, 21, 4079). This was followed by two washes with 1×SSC, 0.1% SDS and two washes with 0.25×SSC, 0.1% SDS. Hybridizing bands were visualized by exposure to X-OMAT AR film and quantitated using a PHOSPHORIMAGER™ essentially according to the manufacturer's instructions (Molecular Dynamics, Sunnyvale, Calif.).
# In initial screenings of a set of oligonucleotides derived from the JNK2 sequence (Table 9) for biological activity, a cDNA clone of JNK2 (Kallunki et al., Genes & Development, 1994, 8, 2996) was radiolabeled and used as a JNK2-specific probe in Northern blots. […]
# [1] = t = 48 h, 300 nM for initial 20 hours then 200 nM for 4 hours
substance,measurement,setting,value
"21858 (antisense CCTGCTCGCGGCTCCGCGTT; 2'-O-methyl wings, phosphorothioate gap, chemistry not fully specified) [compound 21858]",inhibition of rat JNK1 mRNA levels,rat JNK1 mRNA,at least 90%
"15351 (antisense CTCTCTGTAGGCCCGCTTGG; wingmer, 5' P=O 2'-MOE, chemistry not fully specified) [compound 15351]",RNA % Inhibition,JNK1 mRNA; [1],> 70%
18265 (antisense eTeGeTe[5mC]eA*dG*d[5mC]*dT*d[5mC]*dT*dA*d[5mC]*dA*dT*dT*eAeGeGe[5mC]eA) [compound 18265],inhibition of rat JNK2 mRNA levels,rat JNK2 mRNA; A10 cells,≥ 60%
"21862 (antisense CTAGGGATTTCTGTGGTGTG; 2'-O-methyl wings, phosphorothioate gap, chemistry not fully specified) [compound 21862]",inhibition of rat JNK1 mRNA levels,rat JNK1 mRNA,at least 90%
18259 (antisense eGe[5mC]eTe[5mC]eA*dG*dT*dG*dG*dA*d[5mC]*dA*dT*dG*dG*eAeTeGeAeG) [compound 18259],"dose response, levels of mRNA encoding rat JNK2","rat JNK2 mRNA; A10 cells, Northern assays",specifically modulate
12567 (antisense dG*dG*dT*dC*dC*dC*dG*dT*dC*dG*dA*dG*dG*dC*dA*dT*dC*dA*dA*dG) [compound 12567],% EXPRESSION,"JNK2 mRNA; JNK2 mRNA, A549 cells, 400 nM oligonucleotide, relative to control",18%
"21861 (antisense CGGTAGGCTCGCTTAGCATG; 2'-O-methyl wings, phosphorothioate gap, chemistry not fully specified) [compound 21861]",inhibition of rat JNK1 mRNA levels,rat JNK1 mRNA,at least 90%
same,capacity to modulate both JNK1 and JNK2 (Pan JNK),rat JNK2 mRNA; A10 cells,demonstrated a capacity to modulate both JNK1 and JNK2
"21859 (antisense CTCATGATGGCAAGCAATTA; 2'-O-methyl wings, phosphorothioate gap, chemistry not fully specified) [compound 21859]","dose response, levels of mRNA encoding rat JNK1",rat JNK1 mRNA; Northern assays,specifically modulate levels of mRNA encoding JNK1
same,inhibition of rat JNK1 mRNA levels,rat JNK1 mRNA,at least 90%
"C^sC^sA^sA^sG^sC^sG^sG^sG^sC^sC^sT^sA^sC^sA^sG^sA^sG^sA^sG (sense dC*dC*dA*dA*dG*dC*dG*dG*dG*dC*dC*dT*dA*dC*dA*dG*dA*dG*dA*dG) [ISIS 14320, reference compound]",dose- and sequence-dependent response on JNK1 mRNA levels,JNK1 mRNA,neither of the control oligonucleotides effect any consistent response
"21865 (antisense CCATTTCTCCCATAATGCAC; 2'-O-methyl wings, phosphorothioate gap, chemistry not fully specified) [compound 21865]",inhibition of rat JNK1 mRNA levels,rat JNK1 mRNA,at least 90%
"21860 (antisense TGTTGTCACGTTTACTTCTG; 2'-O-methyl wings, phosphorothioate gap, chemistry not fully specified) [compound 21860]",inhibition of rat JNK1 mRNA levels,rat JNK1 mRNA,at least 90%
"21866 (antisense TGAATTCAGGACAAGGTGTT; 2'-O-methyl wings, phosphorothioate gap, chemistry not fully specified) [compound 21866]",inhibition of rat JNK1 mRNA levels,rat JNK1 mRNA,at least 90%
"G^SA^SC^ST^ST^ST^SG^SG^SC^SC^ST^SG^SG^SC^SC^SC^SG^SG^SA^SC (GACTTTGGCCTGGCCCGGAC; DNA, all phosphorothioate, methylation of C not given here) [ISIS 14318, 12560 sense control, 2′-deoxy-phosphorothioate, reference compound]",dose- and sequence-dependent response on JNK2 mRNA levels,"JNK2 mRNA; A549 cells, 50, 100, 200 and 400 nM",neither of the control oligonucleotides effect any consistent response
"15348 (antisense CTCTCTGTAGGCCCGCTTGG; wingmer, 5' 2'-MOE, phosphorothioate, chemistry not fully specified) [compound 15348]",RNA % Inhibition,JNK1 mRNA; [1],> 70%
same,RNA % Inhibition,JNK1 mRNA; t = 72 h,> 70%
18260 (antisense eAeTe[5mC]eTeG*d[5mC]*dG*dA*dG*dG*dT*dT*dT*d[5mC]*dA*eTe[5mC]eGeGe[5mC]) [compound 18260],inhibition of rat JNK2 mRNA levels,rat JNK2 mRNA; A10 cells,≥ 60%
same,% Inhibition,"rat JNK2 mRNA; rat JNK2 (p54a) mRNA in A10 cells, control = LIPOFECTIN only = 0%",59%
same,% EXPRESSION,"rat JNK2 mRNA; rat JNK2 (p54a) mRNA in A10 cells, control = LIPOFECTIN only = 100%",41%
"21864 (antisense TCGTTCCTGCAGTCCTTGCC; 2'-O-methyl wings, phosphorothioate gap, chemistry not fully specified) [compound 21864]",inhibition of rat JNK1 mRNA levels,rat JNK1 mRNA,at least 90%
"C^sT^sT^sT^sC^sC^sG^sT^sT^sG^sG^sA^sC^sC^sC^sC^sT^sG^sG^sG (dC*dT*dT*dT*dC*dC*dG*dT*dT*dG*dG*dA*dC*dC*dC*dC*dT*dG*dG*dG; further chemistry not given here) [ISIS 14321, reference compound]",dose- and sequence-dependent response on JNK1 mRNA levels,JNK1 mRNA,neither of the control oligonucleotides effect any consistent response
"21867 (antisense AGCTTCGTCTACGGAGATCC; 2'-O-methyl wings, phosphorothioate gap, chemistry not fully specified) [compound 21867]",inhibition of rat JNK1 mRNA levels,rat JNK1 mRNA,at least 90%
same,capacity to modulate both JNK1 and JNK2 (Pan JNK),rat JNK2 mRNA; A10 cells,demonstrated a capacity to modulate both JNK1 and JNK2
"15350 (antisense CTCTCTGTAGGCCCGCTTGG; wingmer, 3' P=O 2'-MOE, chemistry not fully specified) [compound 15350]",RNA % Inhibition,JNK1 mRNA; [1],50.8%
18257 (antisense eGeAeTeAeT*d[5mC]*dA*dA*d[5mC]*dA*dT*dT*d[5mC]*dT*d[5mC]*e[5mC]eTeTeGeT) [compound 18257],inhibition of rat JNK2 mRNA levels,rat JNK2 mRNA; A10 cells,≥ 60%
